Where two headings read alike, the source gives them in different places.
Test system: stroke rats
[1] = 2.5 μmol/kg 5Ak after 6 hours from stroke onset, 1st day
[2] = 2.5 μmol/kg 5Ak after 6 hours from stroke onset, 2nd day
[3] = 2.5 μmol/kg 5Ak after 6 hours from stroke onset, 3rd day
[4] = 2.5 μmol/kg 5Ak after 6 hours from stroke onset, 4th day
[5] = 2.5 μmol/kg 5Ak after 6 hours from stroke onset, 5th day
[6] = 2.5 μmol/kg 5Ak after 6 hours from stroke onset, 6th day
[7] = 2.5 μmol/kg 5Ak after 24 hours from stroke onset, 1st day
[8] = 2.5 μmol/kg 5Ak after 24 hours from stroke onset, 2nd day
[9] = 2.5 μmol/kg 5Ak after 24 hours from stroke onset, 3rd day
[10] = 2.5 μmol/kg 5Ak after 24 hours from stroke onset, 4th day
[11] = 2.5 μmol/kg 5Ak after 24 hours from stroke onset, 5th day
[12] = 2.5 μmol/kg 5Ak after 24 hours from stroke onset, 6th day
[13] = 5 μmol/kg 5Ak after 24 hours from stroke onset, 1st day
[14] = 5 μmol/kg 5Ak after 24 hours from stroke onset, 2nd day
[15] = 5 μmol/kg 5Ak after 24 hours from stroke onset, 3rd day
[16] = 5 μmol/kg 5Ak after 24 hours from stroke onset, 4th day
[17] = 5 μmol/kg 5Ak after 24 hours from stroke onset, 5th day
[18] = 5 μmol/kg 5Ak after 24 hours from stroke onset, 6th day
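Also: male SD rats with thrombus-induced cerebral embolism via internal carotid artery, scored daily by Zealonga neurological deficit scale (0 no deficit to 5 death), lower score better.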

Description: The therapeutic effect was evaluated by neurological functional scores. The lower the score was, the better the therapeutic effect was. A 10% chloral hydrate solution was injected intraperitoneally into male SD rats at a dosage of 400 mg/kg body weight for anesthesia. A longitudinal incision was made at the center of the neck, and the right common carotid artery trunk was separated (about 3 cm in length). External carotid artery branches were each separated and ligated at the hyoid level, and the internal carotid artery was separated from the swollen part of the neck. The incision of the internal carotid artery and the proximal end of the common carotid artery were clipped respectively with noninvasive arterial clips, and the distal end of the external carotid artery was ligated. A catheter containing 0.5 mL thrombus suspension in normal saline was inserted in the external carotid artery trunk. When the clip on the internal carotid artery was released, the 0.5 mL thrombus suspension in normal saline in the catheter slowly flew from the external carotid artery to its proximal end, and then was injected into the arteries in brain through the internal carotid artery. Subsequently, the proximal end of the internal carotid artery was ligated, the arterial clips on the internal carotid artery and the common carotid artery were released, and blood flow was restored. After the wound was stitched up, 20,000 IU penicillin was intramuscularly injected for prevention from infection. […] Self-comparison was performed each day, and the neurological deficit degree was evaluated by the Zealonga method. A score of 0 indicated no sign of loss in neural function, 1 indicated the front limbs on the undamaged side could not stretch out, 2 indicated walking toward the undamaged side, 3 indicated tail-chasing walking in circles toward the undamaged side, 4 indicated involuntary walking with disturbance of consciousness, and 5 indicated death.

C[C@H](NC(=O)[C@@H]1CCCN1)C(=O)N[C@@H](CCCCN)C(=O)NCCCC[C@H](NC(=O)[C@@H]1Cc2cc(O)c(O)cc2C(C)(C)N1)C(=O)O [Compound 5Ak, 3S-6,7-dihydroxy-1,1-dimethyl-1,2,3,4-tetrahydro-isoquinoline-3-acyl-Lys(Pro-Ala-Lys)]
therapeutic effect, result in words (2.5 μmol/kg 5Ak after 6 hours from stroke onset): better therapeutic effect than 1 μmol/kg 5Ak | Daily neural function scores, number of rats under 0 score [1]: 1 | Daily neural function scores, number of rats under 1 score [1]: 7 | Daily neural function scores, number of rats under 2 scores [1]: 0 | Daily neural function scores, number of rats under 3 scores [1]: 1 | Daily neural function scores, number of rats under 4 scores [1]: 0 | Daily neural function scores, number of rats under 5 scores [1]: 0 | Daily neural function scores, number of rats under 0 score [2]: 3 | Daily neural function scores, number of rats under 1 score [2]: 4 | Daily neural function scores, number of rats under 2 scores [2]: 2 | Daily neural function scores, number of rats under 3 scores [2]: 0 | Daily neural function scores, number of rats under 4 scores [2]: 0 | Daily neural function scores, number of rats under 5 scores [2]: 0 | Daily neural function scores, number of rats under 0 score [3]: 6 | Daily neural function scores, number of rats under 1 score [3]: 2 | Daily neural function scores, number of rats under 2 scores [3]: 1 | Daily neural function scores, number of rats under 3 scores [3]: 0 | Daily neural function scores, number of rats under 4 scores [3]: 0 | Daily neural function scores, number of rats under 5 scores [3]: 0 | Daily neural function scores, number of rats under 0 score [4]: 6 | Daily neural function scores, number of rats under 1 score [4]: 3 | Daily neural function scores, number of rats under 2 scores [4]: 0 | Daily neural function scores, number of rats under 3 scores [4]: 0 | Daily neural function scores, number of rats under 4 scores [4]: 0 | Daily neural function scores, number of rats under 5 scores [4]: 0 | Daily neural function scores, number of rats under 0 score [5]: 5 | Daily neural function scores, number of rats under 1 score [5]: 4 | Daily neural function scores, number of rats under 2 scores [5]: 0 | Daily neural function scores, number of rats under 3 scores [5]: 0 | Daily neural function scores, number of rats under 4 scores [5]: 0 | Daily neural function scores, number of rats under 5 scores [5]: 0 | Daily neural function scores, number of rats under 0 score [6]: 7 | Daily neural function scores, number of rats under 1 score [6]: 2 | Daily neural function scores, number of rats under 2 scores [6]: 0 | Daily neural function scores, number of rats under 3 scores [6]: 0 | Daily neural function scores, number of rats under 4 scores [6]: 0 | Daily neural function scores, number of rats under 5 scores [6]: 0 | therapeutic effect, result in words (2.5 μmol/kg 5Ak after 24 hours from stroke onset): certain therapeutic effect | Daily neural function scores, number of rats under 0 score [7]: 1 | Daily neural function scores, number of rats under 1 score [7]: 4 | Daily neural function scores, number of rats under 2 scores [7]: 1 | Daily neural function scores, number of rats under 3 scores [7]: 0 | Daily neural function scores, number of rats under 4 scores [7]: 1 | Daily neural function scores, number of rats under 5 scores [7]: 0 | Daily neural function scores, number of rats under 0 score [8]: 3 | Daily neural function scores, number of rats under 1 score [8]: 2 | Daily neural function scores, number of rats under 2 scores [8]: 1 | Daily neural function scores, number of rats under 3 scores [8]: 1 | Daily neural function scores, number of rats under 4 scores [8]: 0 | Daily neural function scores, number of rats under 5 scores [8]: 0 | Daily neural function scores, number of rats under 0 score [9]: 3 | Daily neural function scores, number of rats under 1 score [9]: 2 | Daily neural function scores, number of rats under 2 scores [9]: 1 | Daily neural function scores, number of rats under 3 scores [9]: 0 | Daily neural function scores, number of rats under 4 scores [9]: 0 | Daily neural function scores, number of rats under 5 scores [9]: 1 | Daily neural function scores, number of rats under 0 score [10]: 2 | Daily neural function scores, number of rats under 1 score [10]: 2 | Daily neural function scores, number of rats under 2 scores [10]: 1 | Daily neural function scores, number of rats under 3 scores [10]: 1 | Daily neural function scores, number of rats under 4 scores [10]: 0 | Daily neural function scores, number of rats under 5 scores [10]: 0 | Daily neural function scores, number of rats under 0 score [11]: 4 | Daily neural function scores, number of rats under 1 score [11]: 0 | Daily neural function scores, number of rats under 2 scores [11]: 1 | Daily neural function scores, number of rats under 3 scores [11]: 0 | Daily neural function scores, number of rats under 4 scores [11]: 0 | Daily neural function scores, number of rats under 5 scores [11]: 1 | Daily neural function scores, number of rats under 0 score [12]: 3 | Daily neural function scores, number of rats under 1 score [12]: 1 | Daily neural function scores, number of rats under 2 scores [12]: 1 | Daily neural function scores, number of rats under 3 scores [12]: 0 | Daily neural function scores, number of rats under 4 scores [12]: 0 | Daily neural function scores, number of rats under 5 scores [12]: 0 | rats that died during successive 6-day treatment (2.5 μmol/kg 5Ak once per day after 6 hours from stroke onset, nine rats): no death occurred | rats that died during successive 6-day treatment (2.5 μmol/kg 5Ak once per day after 24 hours from stroke onset, seven rats): two | therapeutic effect, result in words (5 μmol/kg 5Ak after 24 hours from stroke onset): definite therapeutic effect | Daily neural function scores, number of rats under 0 score [13]: 0 | Daily neural function scores, number of rats under 1 score [13]: 5 | Daily neural function scores, number of rats under 2 scores [13]: 4 | Daily neural function scores, number of rats under 3 scores [13]: 0 | Daily neural function scores, number of rats under 4 scores [13]: 1 | Daily neural function scores, number of rats under 5 scores [13]: 0 | Daily neural function scores, number of rats under 0 score [14]: 2 | Daily neural function scores, number of rats under 1 score [14]: 6 | Daily neural function scores, number of rats under 2 scores [14]: 2 | Daily neural function scores, number of rats under 3 scores [14]: 0 | Daily neural function scores, number of rats under 4 scores [14]: 0 | Daily neural function scores, number of rats under 5 scores [14]: 0 | Daily neural function scores, number of rats under 0 score [15]: 2 | Daily neural function scores, number of rats under 1 score [15]: 6 | Daily neural function scores, number of rats under 2 scores [15]: 2 | Daily neural function scores, number of rats under 3 scores [15]: 0 | Daily neural function scores, number of rats under 4 scores [15]: 0 | Daily neural function scores, number of rats under 5 scores [15]: 0 | Daily neural function scores, number of rats under 0 score [16]: 5 | Daily neural function scores, number of rats under 1 score [16]: 5 | Daily neural function scores, number of rats under 2 scores [16]: 0 | Daily neural function scores, number of rats under 3 scores [16]: 0 | Daily neural function scores, number of rats under 4 scores [16]: 0 | Daily neural function scores, number of rats under 5 scores [16]: 0 | Daily neural function scores, number of rats under 0 score [17]: 6 | Daily neural function scores, number of rats under 1 score [17]: 4 | Daily neural function scores, number of rats under 2 scores [17]: 0 | Daily neural function scores, number of rats under 3 scores [17]: 0 | Daily neural function scores, number of rats under 4 scores [17]: 0 | Daily neural function scores, number of rats under 5 scores [17]: 0 | Daily neural function scores, number of rats under 0 score [18]: 7 | Daily neural function scores, number of rats under 1 score [18]: 3 | Daily neural function scores, number of rats under 2 scores [18]: 0 | Daily neural function scores, number of rats under 3 scores [18]: 0 | Daily neural function scores, number of rats under 4 scores [18]: 0 | Daily neural function scores, number of rats under 5 scores [18]: 0 | rats that died during successive 6-day treatment (5 μmol/kg 5Ak once per day after 24 hours from stroke onset, ten rats): no death occurred
